This is an account of results in publication PMC10046901, “Molecular Analysis of the Superior Efficacy of a Dual Epidermal Growth Factor Receptor (EGFR)-DNA-Targeting Combi-Molecule in Comparison with Its Putative Prodrugs 6-Mono-Alkylamino- and 6,6-Dialkylaminoquinazoline in a Human Osteosarcoma Xenograft Model” (Cells, 2023).

Entries after “also recorded” stand apart in the source; their conditions may differ.

The test system of test [1] is U2-OS. The test is described as follows: cells. The test is classed as cell-based. The settings on record: Homo sapiens, U2OS, 120 h, read-out: IC50 growth inhibition.
Test [2] deals with MG-63. As to the kind of experiment: cells. The test is classed as cell-based. The settings on record: Homo sapiens, MG-63, 120 h, read-out: IC50 growth inhibition.
For test [3], the system named is MNNG/HOS. As to the kind of experiment: cells. Format: cell-based. The settings on record: 120 h, read-out: IC50 growth inhibition.
Test [4] relates to KHOS/NP. As to the kind of experiment: cells. Format: cell-based. Conditions: Homo sapiens, 120 h, read-out: IC50 growth inhibition.
The test system of test [5] is Saos-2 osteosarcoma xenograft. The test is described as follows: Saos-2 xenograft tumor growth (caliper, CT). The settings on record: 80 mg/kg oral gavage every other day for 20 days; end of treatment. Format: in vivo, NSG male mice. The protocol:
Animal experiments were executed in accordance with a protocol approved by the McGill Institutional Animal Care Committee (McGill University Health Centre Research Institute and McGill University, Montreal, Canada). Xenografts of the tumors were obtained via unilateral and subcutaneous injection (5 × 10^6 cells in 100 µL of a PBS1x solution) into immunodeficient NSG male mice (N = 28; 8 weeks old; weight = 30 g; Charles River, Canada). The mice were maintained at optimal temperature (24 °C) and relative humidity (50%) on a 12/12-light/dark cycle with free access to water and food. The mice were monitored clinically every day; body weights were recorded and tumor volumes were measured with a caliper using the formula 4/3 π (length/2) (width/2)^2 every other day. Once tumors reached 68 mm^3, the mice were randomly divided into 4 groups: 1 was treated with ZR2002 (N = 7), another was treated with JS84 (N = 7), another was treated with JS61 (N = 7) and the last was treated with a vehicle (N = 7). […]
All PET/CT experiments were performed using nanoScan PET/CT for small animals (Mediso Medical Imaging Systems, Budapest, Hungary). […] The mice were kept awake for 45 min before the scans and weighed, and glycemia was measured in blood drawn from the caudal artery. […] Temperature and heart rate were monitored throughout the procedure using the Mediso system. […] The CT volume-of-interest (VOI) was drawn manually on the CT and PET co-registered images. ^18F-FDG accumulation was quantified as the mean standardized uptake value (SUV) between 20 and 30 min post-injection in a 3D volume-of-interest (VOI), which was named the metabolic volume (MV), delineated semi-automatically with iso-contours at a 40% threshold of the maximal SUV [30] in the tumor on PET/CT fusion slices using the PMOD software package v3.6 (PMOD Technologies Ltd., Zürich, Switzerland). In addition, another tumor volume-based parameter, called total lesion glycolysis (TLG), was calculated according to the product between the MV and the mean SUV. […]

The target in test [6] is T1, EGFR phosphorylation of tyrosine (Tyr) 1068 (Homo sapiens, UniProt P00533).
T1 construct: Western blotting in tumor samples obtained from animals treated with ZR2002, JS61, JS84 or the vehicle; from tissue; host or cells: Saos-2 xenograft tumours grown subcutaneously in NSG mice
T1 sequence (P00533 25-1210): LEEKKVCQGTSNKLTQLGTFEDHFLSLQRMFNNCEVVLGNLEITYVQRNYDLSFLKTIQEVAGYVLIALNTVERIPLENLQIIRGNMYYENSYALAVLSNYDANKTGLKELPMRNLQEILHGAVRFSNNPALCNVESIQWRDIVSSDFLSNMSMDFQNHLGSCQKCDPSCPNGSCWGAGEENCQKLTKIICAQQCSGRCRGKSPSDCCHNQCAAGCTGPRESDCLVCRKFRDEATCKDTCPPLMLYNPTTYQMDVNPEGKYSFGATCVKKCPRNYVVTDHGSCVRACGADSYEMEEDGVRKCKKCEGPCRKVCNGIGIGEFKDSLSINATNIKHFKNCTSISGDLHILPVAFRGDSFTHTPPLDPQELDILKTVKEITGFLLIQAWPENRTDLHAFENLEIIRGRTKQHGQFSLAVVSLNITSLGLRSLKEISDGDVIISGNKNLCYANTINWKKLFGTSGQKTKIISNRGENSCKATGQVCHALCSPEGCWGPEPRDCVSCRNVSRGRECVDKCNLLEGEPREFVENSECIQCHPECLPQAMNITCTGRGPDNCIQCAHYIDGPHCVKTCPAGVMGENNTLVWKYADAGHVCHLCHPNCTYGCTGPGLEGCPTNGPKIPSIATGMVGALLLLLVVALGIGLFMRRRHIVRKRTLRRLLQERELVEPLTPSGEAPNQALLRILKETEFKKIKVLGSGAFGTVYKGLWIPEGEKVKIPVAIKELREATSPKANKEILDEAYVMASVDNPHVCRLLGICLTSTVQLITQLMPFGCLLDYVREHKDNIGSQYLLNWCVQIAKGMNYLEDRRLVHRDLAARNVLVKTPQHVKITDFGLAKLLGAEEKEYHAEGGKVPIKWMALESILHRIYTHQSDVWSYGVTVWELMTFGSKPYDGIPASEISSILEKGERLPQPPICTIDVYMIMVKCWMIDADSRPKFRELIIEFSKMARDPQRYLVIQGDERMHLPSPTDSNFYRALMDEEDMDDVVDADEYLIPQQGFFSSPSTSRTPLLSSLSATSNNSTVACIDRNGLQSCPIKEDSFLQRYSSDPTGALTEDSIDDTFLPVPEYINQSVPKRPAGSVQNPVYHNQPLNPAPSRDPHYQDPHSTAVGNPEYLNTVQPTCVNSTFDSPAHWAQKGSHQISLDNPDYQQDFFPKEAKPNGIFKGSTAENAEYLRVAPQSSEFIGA
As to the kind of experiment: P-EGFR in tumor tissue (immunohistochemistry, Western blot). Conditions: tumors 3 h after last dose, 80 mg/kg, N = 4. Format: in vivo. The protocol: In order to study the drug pharmacokinetics, 1 last dose (the 11th dose) was administered 3 h prior to sacrifice and after a break of 5 days from the previous drug administration.
At the end of the study, the mice were sacrificed, and the plasma and tumors were collected. The plasma was stored at −80 °C, and the tumor tissues were transversely cut into 2 parts: 1 was immediately frozen in liquid nitrogen and stored at −80 °C for Western blots and LC-MS analysis; the other was fixed in 4% paraformaldehyde and used for histology.
The tumors were fixed for 36 h in 4% paraformaldehyde, transferred to 70% EtOH and paraffin-embedded. Sections 4 µm thick were deparaffinized, rehydrated and incubated for 20 min at 37 °C with anti-P-EGFR (1–100, ab40815, Abcam, Cambridge, UK) or anti-P-H2AX (1–100, sc-517348, Santa Cruz Biotechnology, Dallas, TX, USA), followed by secondary Ab incubation with OmniMap anti-Rb HRP (760–4311, Roche, Basel, Switzerland) at room temperature for 16 min, followed by the detection kit ChromoMap Kit (760–4304, Roche, Basel, Switzerland), and the slides were then counterstained with hematoxylin, dehydrated, cleared and cover-slipped. The slides were digitally scanned using an Aperio scanner scope XT.
The tumor tissue samples were smashed with liquid nitrogen into a mortar, and the tumor powders were transferred to cold RIPA 1x buffer with an anti-protease and anti-phosphatase inhibitor cocktail (Roche, Basel, Switzerland) in ice for 1 h and sonicated. After centrifugation, the proteins were quantified and mixed in Laemmli buffer (Sigma-Aldrich, St. Louis, MO, USA), maintaining the same concentration.
Cell lysates or tissue lysates were loaded onto 4–20% SDS-PAGE gels (mini-protean TGx stain-free, Bio-Rad, Hercules, CA, USA) and transferred to PVDF membranes that were pre-wetted with methanol. […] The quantification of the immunoblots was performed on digitalized images using ImageLab Software 6.1 (Bio-Rad, Hercules, CA, USA). […]
For orientation: Immunoblotting shows a protein as a band on a membrane.

`ClCCN(CCCl)c1ccc2ncnc(Nc3cccc(Br)c3)c2c1` [JS61]: the IC50 worked out at 1390 ± 20 nM in test [1], 12500 ± 610 nM in test [2], 5860 ± 150 nM in test [3] and 6830 ± 500 nM in test [4]. In test [5], the “tumor size / growth inhibition vs vehicle (caliper and CT scan)” value is on record as “no significant growth inhibition”. For the same compound, the “EGFR phosphorylation of Tyr 1068 in tumors vs vehicle” value (“EGFR phosphorylation … vs vehicle” below) in test [6] is “detectable EGFR phosphorylation”.
`CN(CCCl)c1ccc2ncnc(Nc3cccc(Br)c3)c2c1` [JS84]: the IC50 in test [1] came to 180 ± 30 nM; in test [2], 5040 ± 980 nM; in test [3], 880 ± 430 nM; in test [4] it was 1380 ± 300 nM. Further, the “tumor size / growth inhibition vs vehicle (caliper and CT scan)” value in test [5] is given as “no significant growth inhibition; also recorded: minor antitumor activity”. Besides, the “EGFR phosphorylation … vs vehicle” value in test [6] is “detectable EGFR phosphorylation”.
Regarding `ClCCNc1ccc2ncnc(Nc3cccc(Br)c3)c2c1` [ZR2002], the IC50 in test [1] was 80 ± 10 nM; in test [2], 450 ± 80 nM; in test [3], 310 ± 90 nM; in test [4], 190 ± 30 nM. The “tumor size / growth inhibition vs vehicle (caliper and CT scan)” value in test [5] is recorded as “significantly reduced”. Also, the “EGFR phosphorylation … vs vehicle” value in test [6] is “reduced”.

The IC50 is the point on the concentration scale where inhibition reaches its midpoint.
